Assay results as given in patent US7618816B2, “Metal-binding therapeutic peptides” (Ontherix, Inc., priority 2005, dated 2009).
Several values for one entry are separate records, joined by “and”; a condition that tells them apart may be missing. Identical values can stand only once. Each block holds one compound with its values, some of them ahead of it. Where a SMILES comes first, the peptide text is derived from it. Where no end group is shown, it is not given here. The star is where a group is joined. Biotin = O=C1N[C@H]2[C@H](CS[C@H]2CCCCC(=O)*)N1

How the values were obtained:
[1] = system: MCF-7; assay: Cell survival, mutants of MDOKSH peptide; type: cell-based; set-up: CELL SURVIVAL, MCF-7: unit not given here; details: for CELL SURVIVAL, MCF-7: expressed relative to the activity of the parental peptide MDOKSH
Excerpt: (§1) In order to maximize the effects of cytotoxic peptides, alanine scanning of one peptide (MDOKSH) was undertaken as an illustration. 48 mutants were synthesized, purified and tested in CCRF-CEM and MCF-7. The cytotoxicity of the 48 peptides was strongly correlated in the two cell line assay systems (r=0.606). […] The core MBD sequence may, if desired, be excluded from the region to be explored by mutagenesis, in order to expedite the experiment.

[2] = system: CCRF-CEM; assay: Cell survival, mutants of MDOKSH peptide; type: cell-based; details: for CELL SURVIVAL, CCRF-CEM: expressed relative to the activity of the parental peptide MDOKSH
Excerpt: as §1

[3] = system: MDA-MB231; assay: Cytotoxicity of MBD therapeutic peptides; type: cell-based, human; details: relative to equal dose of control MBD peptide, only p < 0.05 shown, 1-4 experiments
Excerpt: (§2) Also, peptides such as NFKB and CSK are of interest, targeting stress-coping mechanisms such as inflammation. The breast cancer lines tested are HS578T, MX-1, MDA-MB231, MDA-MB435 and MCF7. Leukemia cell lines tested for cytotoxicity effects with these MBD-tagged peptides are CCRF-CEM, RPMI-8226 and MOLT-4. Overall, MCF-7 and CCRF-CEM yield the most consistent data and the strongest effect across the board (Table 12). In addition, elevated levels of cytotoxicity are observed when multiple peptides are combined while keeping the overall amount of peptide added constant. Cytotoxicity increases with the number of peptides added per cocktail and is further enhanced by combining peptide cocktail treatment with paclitaxel.

[4] = system: MOLT-4; assay: Cytotoxicity of MBD therapeutic peptides; type: cell-based, human; details: relative to equal dose of control MBD peptide, only p < 0.05 shown, 1-4 experiments
Excerpt: as §2

[5] = system: MCF-7; assay: Cytotoxicity of MBD therapeutic peptides; type: cell-based, human; details: relative to equal dose of control MBD peptide, only p < 0.05 shown, 1-4 experiments
Excerpt: as §2

[6] = system: cancer cells; assay: Selective cytotoxicity, cancer cells versus normal counterparts; type: cell-based, human
Excerpt: as §2

[7] = system: SR; assay: Cytotoxicity of MBD therapeutic peptides; type: cell-based; details: relative to equal dose of control MBD peptide, only p < 0.05 shown, 1-4 experiments
[8] = system: MDA-MB435; assay: Cytotoxicity of MBD therapeutic peptides; type: cell-based; details: relative to equal dose of control MBD peptide, only p < 0.05 shown, 1-4 experiments
Excerpt: as §2

[9] = system: RPMI-8826; assay: Cytotoxicity of MBD therapeutic peptides; type: cell-based, human; details: relative to equal dose of control MBD peptide, only p < 0.05 shown, 1-4 experiments
Excerpt: as §2

[10] = system: shRNA containing the lambda nutR hairpin loop; assay: Bio-KGF binding of shRNA on Ni-NTA plate, Ribogreen; details: for Ribogreen Fluorescence: mean of eight readings
Excerpt: Peptide Bio-KGF binds shRNA: Bio-KGF peptide was synthesized by Genemed Synthesis, Inc. (S. San Francisco, Calif.) as a 40-mer containing an MBD sequence and an RNA-hairpin binding domain from the N-terminus of bacteriophage lambda N protein: Bio-KGF: (“N”-terminal biotin) . . . KGF YKK KQC RPS KGR KRG FCW AQT RRR ERR AEK QAQ WKA A . . . (“C” terminus) (SEQ ID NO: 11)
An shRNA designed to silence the human beclin gene was designed to include a hairpin sequence corresponding to the NutR box of bacteriophage lambda mRNA (the binding target for the Bio-KGF peptide) and was amplified using the Silencer™ siRNA
Various molar excess amounts of Bio-KGF (ranging from 63 pg to 2 ug per well; similar results were obtained across this range) were attached to a Ni-NTA plate (Qiagen Inc., Carlsbad, Calif. for 1 hour and blocked overnight with 3% BSA at 4 degrees C. in the refrigerator, and washed with PBS/Tween and TE buffers. RNA dilutions were added in TE buffer, incubated for 30 min on shaker, then for 30 min on bench at room temperature. After one wash with TE buffer, Ribogreen reagent (Ribogreen RNA Quantitation Reagent and Kit from Molecular Probes/Invitrogen) was added to the wells, incubated 5 minutes, and fluorescence was read on a fluorescent plate reader. The results are listed in Table 8 (each number is a mean of eight readings): […]

Compound: KKGFYKKKQCRPSKGRKRGFCWKPLYWDLYEP [Mutant 11]
CELL SURVIVAL, MCF-7 [1]: 59.6 ± 10.7 | CELL SURVIVAL, CCRF-CEM [2]: 64.8 ± 7.2

Compound: CC[C@H](C)[C@H](NC(=O)[C@H](CC(=O)O)NC(=O)[C@H](CO)NC(=O)[C@H](Cc1ccccc1)NC(=O)[C@@H](NC(=O)[C@H](CCC(=O)O)NC(=O)CCCC[C@@H]1SC[C@@H]2NC(=O)N[C@@H]21)[C@@H](C)O)C(=O)N[C@@H](Cc1c[nH]c2ccccc12)C(=O)N[C@@H](CCCCN)C(=O)N[C@@H](CC(C)C)C(=O)N[C@@H](CC(C)C)C(=O)N[C@@H](CCCCN)C(=O)N[C@@H](CCCCN)C(=O)NCC(=O)N[C@@H](Cc1ccccc1)C(=O)N[C@@H](Cc1ccc(O)cc1)C(=O)N[C@@H](CCCCN)C(=O)N[C@@H](CCCCN)C(=O)N[C@@H](CCCCN)C(=O)N[C@@H](CCC(N)=O)C(=O)N[C@@H](CS)C(=O)N[C@@H](CCCNC(=N)N)C(=O)N1CCC[C@H]1C(=O)N[C@@H](CO)C(=O)N[C@@H](CCCCN)C(=O)NCC(=O)N[C@@H](CCCNC(=N)N)C(=O)N[C@@H](CCCCN)C(=O)N[C@@H](CCCNC(=N)N)C(=O)NCC(=O)N[C@@H](Cc1ccccc1)C(=O)N[C@@H](CS)C(=O)N[C@@H](Cc1c[nH]c2ccccc12)C(=O)O [PEP-3] (Biotin-ETFSDIWKLLKKGFYKKKQCRPSKGRKRGFCW-OH)
% viability @ 48 hr/25 ug/ml peptide, MDA-MB231 [3]: 32.9 ± 1.7% | % viability @ 48 hr/25 ug/ml peptide, MOLT-4 [4]: 73.0 ± 5.5% and 58.3 ± 16.5% | % viability @ 48 hr/25 ug/ml peptide, MCF-7 [5]: 27.5 ± 15.2% and 30.6 ± 5.7% and 21.7 ± 1.5% | Cytotoxic effect on cancer cells versus normal counterparts (in words) [6]: strong cytotoxic effect on cancer cells but not their human counterparts | % viability @ 48 hr/25 ug/ml peptide, SR [7]: 75.9 ± 15.7% | % viability @ 48 hr/25 ug/ml peptide, MDA-MB435 [8]: 16.0 ± 2.0% and 27.0 ± 3.9%

Compound: KKGFYKKKQCRPSKGRKRGFCWKPLYWDLYEM [Mutant 9]
CELL SURVIVAL, MCF-7 [1]: 56.8 ± 8.1 | CELL SURVIVAL, CCRF-CEM [2]: 63.8 ± 4.6

Compound: KKGFYKKKQCRPSKGRKRGFCWKPLYWALYE [Mutant 23]
CELL SURVIVAL, MCF-7 [1]: 58.8 ± 8.1 | CELL SURVIVAL, CCRF-CEM [2]: 74.5 ± 8.0

Compound: CC(C)C[C@H](NC(=O)[C@H](C)NC(=O)[C@H](CCCCN)NC(=O)[C@H](Cc1c[nH]c2ccccc12)NC(=O)[C@H](CS)NC(=O)[C@H](Cc1ccccc1)NC(=O)CNC(=O)[C@H](CCCNC(=N)N)NC(=O)[C@H](CCCCN)NC(=O)[C@H](CCCNC(=N)N)NC(=O)CNC(=O)[C@H](CCCCN)NC(=O)[C@H](CO)NC(=O)[C@@H]1CCCN1C(=O)[C@H](CCCNC(=N)N)NC(=O)[C@H](CS)NC(=O)[C@H](CCC(N)=O)NC(=O)[C@H](CCCCN)NC(=O)[C@H](CCCCN)NC(=O)[C@H](CCCCN)NC(=O)[C@H](Cc1ccc(O)cc1)NC(=O)[C@H](Cc1ccccc1)NC(=O)CNC(=O)[C@H](CCCCN)NC(=O)[C@H](CCCCN)NC(=O)CCCC[C@@H]1SC[C@@H]2NC(=O)N[C@@H]21)C(=O)N[C@@H](Cc1ccc(O)cc1)C(=O)N[C@@H](Cc1c[nH]c2ccccc12)C(=O)N[C@@H](CC(=O)O)C(=O)N[C@@H](CC(C)C)C(=O)N[C@@H](Cc1ccc(O)cc1)C(=O)N[C@@H](CCC(=O)O)C(=O)O [Mutant 27] (Biotin-KKGFYKKKQCRPSKGRKRGFCWKALYWDLYE-OH)
Cytotoxicity versus parental MDOKSH (in words) ([1]; MCF-7): greatly enhanced cytotoxicity | Cytotoxicity versus parental MDOKSH (in words) ([2]; CCRF-CEM): greatly enhanced cytotoxicity

Compound: Biotin-KKGFYKKKQCRPSKGRKRGFCWARIDDMSSRIDDLEKNIADL (cysteines drawn unpaired) [M9HSBP1]
% viability @ 48 hr/25 ug/ml peptide, MOLT-4 [4]: 77.1 ± 20.3% | % viability @ 48 hr/25 ug/ml peptide, RPMI-8826 [9]: 77.7 ± 5.2%

Compound: AKGFYKKKQCRPSKGRKRGFCWKPLYWDLYE [Mutant 48]
CELL SURVIVAL, MCF-7 [1]: 61.6 ± 3.1 | CELL SURVIVAL, CCRF-CEM [2]: 71.8 ± 10.7

Compound: CC(C)C[C@H](NC(=O)[C@H](CC(C)C)NC(=O)[C@H](CCCCN)NC(=O)[C@H](Cc1c[nH]c2ccccc12)NC(=O)[C@H](CC(C)C)NC(=O)[C@H](CC(=O)O)NC(=O)[C@H](CO)NC(=O)[C@H](Cc1ccccc1)NC(=O)[C@@H](NC(=O)[C@H](CCC(=O)O)NC(=O)CCCC[C@@H]1SC[C@@H]2NC(=O)N[C@@H]21)[C@@H](C)O)C(=O)N[C@@H](CCCCN)C(=O)N[C@@H](CCCCN)C(=O)NCC(=O)N[C@@H](Cc1ccccc1)C(=O)N[C@@H](Cc1ccc(O)cc1)C(=O)N[C@@H](CCCCN)C(=O)N[C@@H](CCCCN)C(=O)N[C@@H](CCCCN)C(=O)N[C@@H](CCC(N)=O)C(=O)N[C@@H](CS)C(=O)N[C@@H](CCCNC(=N)N)C(=O)N1CCC[C@H]1C(=O)N[C@@H](CO)C(=O)N[C@@H](CCCCN)C(=O)NCC(=O)N[C@@H](CCCNC(=N)N)C(=O)N[C@@H](CCCCN)C(=O)N[C@@H](CCCNC(=N)N)C(=O)NCC(=O)N[C@@H](Cc1ccccc1)C(=O)N[C@@H](CS)C(=O)N[C@@H](Cc1c[nH]c2ccccc12)C(=O)O [PEP-1] (Biotin-ETFSDLWKLLKKGFYKKKQCRPSKGRKRGFCW-OH)
Cytotoxic effect on cancer cells versus normal counterparts (in words) [6]: strong cytotoxic effect on cancer cells but not their human counterparts

Compound: CC(C)C[C@H](NC(=O)[C@H](CC(=O)O)NC(=O)[C@H](Cc1c[nH]c2ccccc12)NC(=O)[C@H](Cc1ccc(O)cc1)NC(=O)[C@H](CC(C)C)NC(=O)[C@@H]1CCCN1C(=O)[C@H](CCCCN)NC(=O)[C@H](Cc1c[nH]c2ccccc12)NC(=O)[C@H](CS)NC(=O)[C@H](Cc1ccccc1)NC(=O)CNC(=O)[C@H](CCCNC(=N)N)NC(=O)[C@H](CCCCN)NC(=O)[C@H](CCCNC(=N)N)NC(=O)CNC(=O)[C@H](CCCCN)NC(=O)[C@H](CO)NC(=O)[C@@H]1CCCN1C(=O)[C@H](CCCNC(=N)N)NC(=O)[C@H](CS)NC(=O)[C@H](CCC(N)=O)NC(=O)[C@H](CCCCN)NC(=O)[C@H](CCCCN)NC(=O)[C@H](CCCCN)NC(=O)[C@H](Cc1ccc(O)cc1)NC(=O)[C@H](Cc1ccccc1)NC(=O)CNC(=O)[C@H](CCCCN)NC(=O)[C@H](CCCCN)NC(=O)CCCC[C@@H]1SC[C@@H]2NC(=O)N[C@@H]21)C(=O)N[C@@H](Cc1ccc(O)cc1)C(=O)N[C@@H](CCC(=O)O)C(=O)O [MDOKSH] (Biotin-KKGFYKKKQCRPSKGRKRGFCWKPLYWDLYE-OH)
CELL SURVIVAL, MCF-7 [1]: 100 | CELL SURVIVAL, CCRF-CEM [2]: 100

Compound: KKGFYKKKQCRPSKGRKRGFCWAPLYWDLYE [Mutant 28]
CELL SURVIVAL, MCF-7 [1]: 52.7 ± 11.7 | CELL SURVIVAL, CCRF-CEM [2]: 60.1 ± 11.1

Binding of shRNA (in words) [10]: binds the shRNA | Ribogreen Fluorescence ([10]; 2.7 ng shRNA per well): 853 ± 600 | Ribogreen Fluorescence ([10]; 5.5 ng shRNA per well): 2058 ± 781 | Ribogreen Fluorescence ([10]; 11 ng shRNA per well): 6016 ± 2977 | Ribogreen Fluorescence ([10]; 22 ng shRNA per well): 11924 ± 3650 | Ribogreen Fluorescence ([10]; 44 ng shRNA per well): 42053 ± 12769 | Ribogreen Fluorescence ([10]; 88 ng shRNA per well): 81819 ± 24656
Compound: KGF YKK KQC RPS KGR KRG FCW AQT RRR ERR AEK QAQ WKA A (Biotin-KGFYKKKQCRPSKGRKRGFCWAQTRRRERRAEKQAQWKAA; cysteine pairing not given here) [Bio-KGF]

Compound: KKGFYKKKQCRPSKGRKRGFCWKPLYWDLYEI [Mutant 6]
CELL SURVIVAL, MCF-7 [1]: 68.5 ± 6.5 | CELL SURVIVAL, CCRF-CEM [2]: 62.3 ± 5.0
